Data from patent US11932656B1, “Thieno[2,3-d]pyrimidines as COX-2 inhibitors” (KING FAISAL UNIVERSITY, priority 2023, dated 2024).
pIC50: −log10 of the molar value.

What was measured:
ovine COX-1 = molecular target: T1, ovine COX-1 (Ovis aries, UniProt P05979); assay: COX (ovine) Inhibitor Screening Assay, COX-1 (EIA of PGF2α); assay type: biochemical; details: Cayman COX inhibitor screening assay kit
T1 construct: purchased Cayman Chemical, USA 560131
T1 sequence (P05979 25-600): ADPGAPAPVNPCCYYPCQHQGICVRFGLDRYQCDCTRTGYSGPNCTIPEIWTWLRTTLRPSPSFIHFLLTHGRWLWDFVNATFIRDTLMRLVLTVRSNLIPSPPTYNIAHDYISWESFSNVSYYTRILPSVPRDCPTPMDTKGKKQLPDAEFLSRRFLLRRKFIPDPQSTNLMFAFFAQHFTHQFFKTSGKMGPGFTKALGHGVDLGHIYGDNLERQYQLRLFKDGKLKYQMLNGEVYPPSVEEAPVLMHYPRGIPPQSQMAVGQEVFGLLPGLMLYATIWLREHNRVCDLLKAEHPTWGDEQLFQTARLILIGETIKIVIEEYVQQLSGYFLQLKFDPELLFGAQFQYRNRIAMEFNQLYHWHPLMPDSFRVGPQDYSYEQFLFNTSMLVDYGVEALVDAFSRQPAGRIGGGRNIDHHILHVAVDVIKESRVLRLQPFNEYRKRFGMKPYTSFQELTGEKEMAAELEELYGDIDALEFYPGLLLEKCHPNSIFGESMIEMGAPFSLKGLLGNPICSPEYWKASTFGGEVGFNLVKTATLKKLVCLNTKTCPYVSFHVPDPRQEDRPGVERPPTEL
From the text: (§1) 2-Butanone, ethylcyanoacetate (≥98%), dimethylformamide (≥99.5%), ethanol (≥99%), n-hexane, cyanamide and sulphur (≥99.5%) were bought from Acros Chemical (USA). Diethylamine, sodium sulphate anhydrous and analytical grade NaOH pellets were bought from Fisher Scientific (UK). 1,4-dioxane, concentrated HCl, ethyl acetate, hexane, chloroform, 4-fluorobenzoyl chloride (98%) , 4-methoxyphenyl acetonitrile (≥97%), 4-fluorophenyl acetonitrile (≥99%), and 2-(trifluoromethyl)benzoyl chloride were bought from Aldrich Chemicals. TLC Silica gel 60 F254 was obtained from Merck, USA. COX inhibitor screening assay kit (Item no. 560131) was procured from Cayman Chemical, USA.
(§2) The COX (ovine) Inhibitor Screening Assay was performed mainly to determine the selective inhibition of tested compounds (4a, 4b, 5a, 5b) towards the ovine COX-1 and human recombinant COX-2 isoenzymes. The addition of arachidonic acid (AA) helped to convert the COX component into PGG2, followed by reduction of PGG2 into PGH2. The following addition of SnCl2 converted PGH2 into PGF2α. The assay directly measures the PGF2α0 via enzyme immunoassay (EIA) using a broadly specific antiserum that bound to all PG tracers. Depending on the tested compounds inhibitory effect, the concentration of PGF2α in each well varied and was inversely proportional to the amount of PG tracers that was able to bind to the antiserum. PG tracers-antiserum complex was left to bind to the mouse monoclonal anti-rabbit antibody that has been coated to the well during the 18 hours incubation. Ellman's reagent was added to give distinct yellow coloration to the products from this enzymatic reaction, which absorbed strongly at 412 nm. The intensity of the color was proportional to the amount of PG tracers-antiserum complex bound to the well, which was inversely proportional to the concentration of PGF2α present.
(§3) The inhibitory activity of tested compounds was determined based on IC50 values whereas the selectivity was based on their selectivity indices (SI), which defined as COX-1 IC50/COX-2 IC50. In the assay system, indomethacin was used as non-selective COX inhibitor standard while NS-398 was used as COX-2 selective inhibitor standard.

human recombinant COX-2 = molecular target: T2, human recombinant COX-2 (Homo sapiens, UniProt P35354); assay: COX Inhibitor Screening Assay, COX-2 (EIA of PGF2α); assay type: biochemical; details: for pIC50: human recombinant COX-2, Cayman COX inhibitor screening assay kit; for SI (selectivity index, COX-1 IC50/COX-2 IC50): ratio COX-1 IC50/COX-2 IC50; for selective inhibition against COX-2: statement in words, COX-2 versus COX-1
T2 construct: purchased Cayman Chemical, USA 560131
T2 sequence (P35354 18-604): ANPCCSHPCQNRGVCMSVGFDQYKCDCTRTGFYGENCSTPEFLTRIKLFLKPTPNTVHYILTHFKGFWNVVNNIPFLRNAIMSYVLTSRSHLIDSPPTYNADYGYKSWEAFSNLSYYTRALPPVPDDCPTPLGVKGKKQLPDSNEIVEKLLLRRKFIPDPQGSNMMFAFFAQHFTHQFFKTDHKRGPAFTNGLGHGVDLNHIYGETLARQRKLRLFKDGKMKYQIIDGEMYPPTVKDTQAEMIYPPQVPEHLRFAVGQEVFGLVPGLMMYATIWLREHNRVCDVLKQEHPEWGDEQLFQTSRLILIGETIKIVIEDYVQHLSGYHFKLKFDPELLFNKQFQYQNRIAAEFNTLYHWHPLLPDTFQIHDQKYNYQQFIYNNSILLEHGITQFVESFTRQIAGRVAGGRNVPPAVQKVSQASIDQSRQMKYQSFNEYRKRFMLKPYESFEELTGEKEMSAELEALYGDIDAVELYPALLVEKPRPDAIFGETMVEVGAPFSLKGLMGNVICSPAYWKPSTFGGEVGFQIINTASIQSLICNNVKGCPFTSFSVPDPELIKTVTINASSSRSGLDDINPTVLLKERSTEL
From the text: as §1, §2, §3

Row | Structure (SMILES) | pIC50 (ovine COX-1) | pIC50 (human recombinant COX-2) | SI (selectivity index, COX-1 IC50/COX-2 IC50) (human recombinant COX-2) | selective inhibition against COX-2 (human recombinant COX-2)
1 | Cc1sc2nc(NC(=O)c3ccc(F)cc3)[nH]c(=O)c2c1C [Compound 5a, N-(5,6-Dimethyl-4-oxo-3,4-dihydrothieno[2,3-d]pyrimidin-2-yl)-4-fluorobenzamide] | 3.95 | 3.99 | 1.08 | mild selective inhibition
2 | Cc1sc2nc(Cc3ccc(F)cc3)[nH]c(=O)c2c1C [Compound 4a, 2-(4-Fluorobenzyl)-5,6-dimethylthieno[2,3-d]pyrimidin-4(3H)-one] | 3.69 | 4.37 | 4.81 | mild selective inhibition
3 | COc1ccc(Cc2nc3sc(C)c(C)c3c(=O)[nH]2)cc1 [Compound 4b, 2-(4-Methoxybenzyl)-5,6-dimethylthieno[2,3-d]pyrimidin-4(3H)-one] | 3.23 | 3.85 | 4.11 | mild selective inhibition
4 | Cc1sc2nc(NC(=O)c3ccccc3C(F)(F)F)[nH]c(=O)c2c1C [Compound 5b, N-(5,6-dimethyl-4-oxo-3,4-dihydrothieno[2,3-d]pyrimidin-2-yl)-2-(trifluoromethyl)benzamide] | 4.66 | 3.72 | 0.12 | mild selective inhibition
